Assay results taken from patent publication US8802597B2, “Herbicidal pyrimidines” (E I du Pont de Nemours and Company, priority 2003, dated 2014).

How the values were obtained:
Assay in all cases: Test C postemergence
Assay type in all cases: in vivo
[1] = system: Italian ryegrass (Lolium multiflorum)
Summary of the method: (§1)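 Greenhouse pot test: seeds treated preemergence, or plants at 2–18 cm (1- to 4-leaf stage) treated postemergence, with compound in non-phytotoxic solvent plus surfactant. Visual rating versus untreated controls after 12–14 days, scale 0 (no effect) to 100 (complete control); dash means not tested.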

[2] = system: blackgrass (Alopecurus myosuroides)
Summary of the method: as §1

[3] = system: canarygrass (Phalaris minor)
Summary of the method: as §1

[4] = system: downy brome (Bromus tectorum)
Summary of the method: as §1

[5] = system: green foxtail (Setaria viridis)
Summary of the method: as §1

[6] = system: wheat (Triticum aestivum)
Summary of the method: as §1

wild oat (Avena fatua) = system: wild oat (Avena fatua)
Summary of the method: as §1

[7] = system: windgrass (Apera spica-venti)
Summary of the method: as §1

[8] = system: winter barley (Hordeum vulgare)
Summary of the method: as §1

[9] = 125 g ai/ha, scale 0 to 100 (0 no effect, 100 complete control)
[10] = 62 g ai/ha, scale 0 to 100 (0 no effect, 100 complete control)

## COC(=O)c1nc(-c2ccc(Br)cc2)nc(N)c1Br [Compound 129]
[1]; 16 g ai/ha
  Plant response rating (scale of 0 to 100), Ryegrass, Italian: 45
[1]; 31 g ai/ha
  Plant response rating (scale of 0 to 100), Ryegrass, Italian: 55
[1]; 62 g ai/ha
  Plant response rating (scale of 0 to 100), Ryegrass, Italian: 55
[1]; [9]
  Ryegrass, Italian plant response rating: 60
[2]; 16 g ai/ha
  Plant response rating (scale of 0 to 100), Blackgrass: 35
[2]; 31 g ai/ha
  Plant response rating (scale of 0 to 100), Blackgrass: 45
[2]; 62 g ai/ha
  Plant response rating (scale of 0 to 100), Blackgrass: 50
[2]; [9]
  Blackgrass plant response rating: 50
[3]; 16 g ai/ha
  Plant response rating (scale of 0 to 100), Canarygrass: 0
[3]; 31 g ai/ha
  Plant response rating (scale of 0 to 100), Canarygrass: 30
[3]; 62 g ai/ha
  Plant response rating (scale of 0 to 100), Canarygrass: 30
[3]; [9]
  Canarygrass plant response rating: 30
[4]; 16 g ai/ha
  Plant response rating (scale of 0 to 100), Bromegrass, Downy: 0
[4]; 31 g ai/ha
  Plant response rating (scale of 0 to 100), Bromegrass, Downy: 0
[4]; 62 g ai/ha
  Plant response rating (scale of 0 to 100), Bromegrass, Downy: 0
[4]; [9]
  Bromegrass, Downy plant response rating: 0
[5]; 16 g ai/ha
  Plant response rating (scale of 0 to 100), Foxtail, Green: 40
[5]; 31 g ai/ha
  Plant response rating (scale of 0 to 100), Foxtail, Green: 40
[5]; 62 g ai/ha
  Plant response rating (scale of 0 to 100), Foxtail, Green: 40
[5]; [9]
  Foxtail, Green plant response rating: 60
[6]; 16 g ai/ha
  Plant response rating (scale of 0 to 100), Wheat: 0
[6]; 31 g ai/ha
  Plant response rating (scale of 0 to 100), Wheat: 35
[6]; 62 g ai/ha
  Plant response rating (scale of 0 to 100), Wheat: 35
[6]; [9]
  Wheat plant response rating: 35
Wild oat (Avena fatua); 16 g ai/ha
  Plant response rating (scale of 0 to 100), Oat, Wild: 30
Wild oat (Avena fatua); 31 g ai/ha
  Plant response rating (scale of 0 to 100), Oat, Wild: 35
Wild oat (Avena fatua); 62 g ai/ha
  Plant response rating (scale of 0 to 100), Oat, Wild: 40
Wild oat (Avena fatua); [9]
  Oat, Wild plant response rating: 40
[7]; 16 g ai/ha
  Plant response rating (scale of 0 to 100), Windgrass: 40
[7]; 31 g ai/ha
  Plant response rating (scale of 0 to 100), Windgrass: 45
[7]; 62 g ai/ha
  Plant response rating (scale of 0 to 100), Windgrass: 60
[7]; [9]
  Windgrass plant response rating: 60
[8]; 16 g ai/ha
  Plant response rating (scale of 0 to 100), Barley: 35
[8]; 31 g ai/ha
  Plant response rating (scale of 0 to 100), Barley: 40
[8]; [10]
  Barley plant response rating: 45
[8]; [9]
  Barley plant response rating: 45

## CNc1nc(C2CC2)nc(C(=O)OC)c1Cl [Compound 79]
[1]; 16 g ai/ha
  Plant response rating (scale of 0 to 100), Ryegrass, Italian: 35
[1]; 31 g ai/ha
  Plant response rating (scale of 0 to 100), Ryegrass, Italian: 35
[1]; 62 g ai/ha
  Plant response rating (scale of 0 to 100), Ryegrass, Italian: 40
[1]; Lolium multiflorum, post-emergence, 125 g ai/ha, scale 0 to 100 (0 no effect, 100 complete control), read-out: Ryegrass, Italian plant response rating
  pest or weed control at 125 g/ha: 45%
[2]; 16 g ai/ha
  Plant response rating (scale of 0 to 100), Blackgrass: 20
[2]; 31 g ai/ha
  Plant response rating (scale of 0 to 100), Blackgrass: 40
[2]; 62 g ai/ha
  Plant response rating (scale of 0 to 100), Blackgrass: 60
[2]; Alopecurus myosuroides, post-emergence, 125 g ai/ha, scale 0 to 100 (0 no effect, 100 complete control), read-out: Blackgrass plant response rating
  pest or weed control at 125 g/ha: 60%
[3]; 16 g ai/ha
  Plant response rating (scale of 0 to 100), Canarygrass: 0
[3]; 31 g ai/ha
  Plant response rating (scale of 0 to 100), Canarygrass: 20
[3]; 62 g ai/ha
  Plant response rating (scale of 0 to 100), Canarygrass: 25
[3]; Phalaris minor, post-emergence, 125 g ai/ha, scale 0 to 100 (0 no effect, 100 complete control), read-out: Canarygrass plant response rating
  pest or weed control at 125 g/ha: 35%
[4]; 16 g ai/ha
  Plant response rating (scale of 0 to 100), Bromegrass, Downy: 0
[4]; 31 g ai/ha
  Plant response rating (scale of 0 to 100), Bromegrass, Downy: 20
[4]; 62 g ai/ha
  Plant response rating (scale of 0 to 100), Bromegrass, Downy: 30
[4]; Bromus tectorum, post-emergence, 125 g ai/ha, scale 0 to 100 (0 no effect, 100 complete control), read-out: Bromegrass, Downy plant response rating
  pest or weed control at 125 g/ha: 35%
[5]; 16 g ai/ha
  Plant response rating (scale of 0 to 100), Foxtail, Green: 20
[5]; 31 g ai/ha
  Plant response rating (scale of 0 to 100), Foxtail, Green: 20
[5]; 62 g ai/ha
  Plant response rating (scale of 0 to 100), Foxtail, Green: 30
[5]; Setaria viridis, post-emergence, 125 g ai/ha, scale 0 to 100 (0 no effect, 100 complete control), read-out: Foxtail, Green plant response rating
  pest or weed control at 125 g/ha: 60%
[6]; 16 g ai/ha
  Plant response rating (scale of 0 to 100), Wheat: 0
[6]; 31 g ai/ha
  Plant response rating (scale of 0 to 100), Wheat: 20
[6]; 62 g ai/ha
  Plant response rating (scale of 0 to 100), Wheat: 30
[6]; Triticum aestivum, post-emergence, 125 g ai/ha, scale 0 to 100 (0 no effect, 100 complete control), read-out: Wheat plant response rating
  plant injury at 125 g/ha: 40%
Wild oat (Avena fatua); 16 g ai/ha
  Plant response rating (scale of 0 to 100), Oat, Wild: 0
Wild oat (Avena fatua); 31 g ai/ha
  Plant response rating (scale of 0 to 100), Oat, Wild: 25
Wild oat (Avena fatua); 62 g ai/ha
  Plant response rating (scale of 0 to 100), Oat, Wild: 25
Wild oat (Avena fatua); Avena fatua, post-emergence, 125 g ai/ha, scale 0 to 100 (0 no effect, 100 complete control), read-out: Oat, Wild plant response rating
  pest or weed control at 125 g/ha: 45%
[7]; 16 g ai/ha
  Plant response rating (scale of 0 to 100), Windgrass: 40
[7]; 31 g ai/ha
  Plant response rating (scale of 0 to 100), Windgrass: 40
[7]; 62 g ai/ha
  Plant response rating (scale of 0 to 100), Windgrass: 45
[7]; Apera spica-venti, post-emergence, 125 g ai/ha, scale 0 to 100 (0 no effect, 100 complete control), read-out: Windgrass plant response rating
  pest or weed control at 125 g/ha: 50%
[8]; 16 g ai/ha
  Plant response rating (scale of 0 to 100), Barley: 0
[8]; 31 g ai/ha
  Plant response rating (scale of 0 to 100), Barley: 30
[8]; Hordeum vulgare, post-emergence, 62 g ai/ha, scale 0 to 100 (0 no effect, 100 complete control), read-out: Barley plant response rating
  plant injury at 62 g/ha: 35%
[8]; Hordeum vulgare, post-emergence, 125 g ai/ha, scale 0 to 100 (0 no effect, 100 complete control), read-out: Barley plant response rating
  plant injury at 125 g/ha: 35%

## CCOC(=O)C(Cl)(Cl)c1nc(C2CC2)nc(N)c1Br [Compound 34]
[1]; 31 g ai/ha
  Plant response rating (scale of 0 to 100), Ryegrass, Italian: 40
[1]; [10]
  Ryegrass, Italian plant response rating: 40
[1]; [9]
  Ryegrass, Italian plant response rating: 45
[1]; 250 g ai/ha, scale 0 to 100
  Plant response rating, Ryegrass, Italian: 60
[2]; 31 g ai/ha
  Plant response rating (scale of 0 to 100), Blackgrass: 0
[2]; [10]
  Blackgrass plant response rating: 35
[2]; [9]
  Blackgrass plant response rating: 35
[2]; 250 g ai/ha, scale 0 to 100
  Plant response rating, Blackgrass: 45
[3]; 31 g ai/ha
  Plant response rating (scale of 0 to 100), Canarygrass: 20
[3]; [10]
  Canarygrass plant response rating: 30
[3]; [9]
  Canarygrass plant response rating: 35
[3]; 250 g ai/ha, scale 0 to 100
  Plant response rating, Canarygrass: 45
[4]; 31 g ai/ha
  Plant response rating (scale of 0 to 100), Bromegrass, Downy: 0
[4]; [10]
  Bromegrass, Downy plant response rating: 0
[4]; [9]
  Bromegrass, Downy plant response rating: 30
[4]; 250 g ai/ha, scale 0 to 100
  Plant response rating, Bromegrass, Downy: 35
[5]; 31 g ai/ha
  Plant response rating (scale of 0 to 100), Foxtail, Green: 40
[5]; [10]
  Foxtail, Green plant response rating: 40
[5]; [9]
  Foxtail, Green plant response rating: 45
[5]; 250 g ai/ha, scale 0 to 100
  Plant response rating, Foxtail, Green: 45
[6]; 31 g ai/ha
  Plant response rating (scale of 0 to 100), Wheat: 0
[6]; [10]
  Wheat plant response rating: 20
[6]; [9]
  Wheat plant response rating: 30
[6]; 250 g ai/ha, scale 0 to 100
  Plant response rating, Wheat: 35
Wild oat (Avena fatua); 31 g ai/ha
  Plant response rating (scale of 0 to 100), Oat, Wild: 20
Wild oat (Avena fatua); [10]
  Oat, Wild plant response rating: 40
Wild oat (Avena fatua); [9]
  Oat, Wild plant response rating: 45
Wild oat (Avena fatua); 250 g ai/ha, scale 0 to 100
  Plant response rating, Oat, Wild: 50
[7]; 31 g ai/ha
  Plant response rating (scale of 0 to 100), Windgrass: 40
[7]; [10]
  Windgrass plant response rating: 40
[7]; [9]
  Windgrass plant response rating: 50
[7]; 250 g ai/ha, scale 0 to 100
  Plant response rating, Windgrass: 60
[8]; 31 g ai/ha
  Plant response rating (scale of 0 to 100), Barley: 20
[8]; [10]
  Barley plant response rating: 20
[8]; [9]
  Barley plant response rating: 30
[8]; 250 g ai/ha, scale 0 to 100
  Plant response rating, Barley: 40
